In US20020198160A1, “Compositions and methods for enhancing the bioavailability of pharmaceutical agents” (priority 2001, published 2002):
Like-named read-outs stand apart in the source and are kept apart here.

Legend:
[1] = target: T1, P-glycoprotein (Homo sapiens, UniProt P08183); assay: in vitro; details: Caco-2, pH 7.4
Description: (§1) The cells were grown and maintained in DMEM (Dulbecco's modified eagle's medium, purchased from Gibco/BRL, Grand Island, N.Y.) supplemented with 10% fetal bovine serum and 2 mM L-glutamine.
(§2) Cell cultures were maintained, antibiotic free, in a 37° C. incubator with 90% relative humidity in an atmosphere of 5% CO2. The cells were maintained in 10 cm^2 stock plates and seeded onto polycarbonate Transwell™ HTS filter inserts at 4×10^5 cells/mL. The cells were cultured on the filters for about 27-30 days. Caco-2 cells having passages between 40 and 110 were used for the studies.
(§3) The integrity of the cell monolayers was determined by measuring the paracellular transepithelial transport of the integrity marker, Lucifer yellow, which is commercially available from Sigma Chemical of St. Louis, Mo.
(§4) Stock concentrations (C0) of each of the P-glycoprotein inhibitors were treated similarly as dosed cells and were retained and sampled for starting dose. Aliquots for both the AP and the BL sides of the cell monolayers were taken at 2 hours, and such aliquots were analyzed by LSC Calculation of the apparent permeability by using the Artusson equation shown above. For the triplicate wells the P(app) is the mean of the three individual P(app) values for each well.

[2] = target: T1, P-glycoprotein
Description: as §1, §2, §3, §4

[3] = tested on: HCT15 cells (which express P-glycoprotein); assay: Decrease of the IC50 of paclitaxel in HCT15 cells on adding a P-glycoprotein inhibitor; format: cell-based; details: lopinavir 5 μM added to paclitaxel
[4] = tested on: H460/T800 cells (which over express P-glycoprotein); assay: Reduction of the IC50 of paclitaxel in paclitaxel resistant H460/T800 cells on adding lopinavir; format: cell-based
[5] = tested on: HCT15 cells (which express P-glycoprotein); assay: Efflux of radiolabelled lopinavir, ritonavir and paclitaxel from HCT15 cells; format: cell-based; details: 1 μM loaded for 1 hour, FIG. 1
Description: The medium was aspirated and the cells were washed with PBS (phosphate buffered saline, available from Life Technologies, Rockvile, Md.). At harvest, the cells were washed once with PBS and the pellets were dissolved in 550 μl of 1N NaOH. The total protein was determined by Bio-Rad assay (available from Bio-Rad of Hercules, Ca.) and the total radioactivity was determined by LSC. Following normalization of the protein amount, cpm/μg protein for each time point was compared to the peak drug time 0.

[6] = target: T1, P-glycoprotein; assay: in vitro; details: Caco-2
Description: as §1, §2, §3
(§5) The transport of vinblastine, which is the pharmaceutically active agent in these studies, was allowed to proceed for 120 minutes at 37° C. Stock concentrations (C0) of each of the P-glycoprotein inhibitors were treated similarly as dosed cells and were retained and sampled for starting dose. Aliquots for both the AP and the BL sides of the cell monolayers were taken at 2 hours, and such aliquots were analyzed by liquid scintillation counting (LSC) using a Packard Liquid Scintillation Counting machine. Calculation of the apparent permeability was done by using the following Artusson equation: [formula]
(§6) where dQ/dT is the flux rate (μg/sec), C0 is concentration of the starting material at t=0 (μg/mL), and A=the area of the monolayer (cm^2). For the triplicate wells the P(app) is the mean of the three individual P(app) values for each well.

[7] = target: T1, P-glycoprotein; assay: Vinblastine transepithelial bi-directional transport across Caco-2 cell monolayers with or without P-glycoprotein inhibitors; details: Run 2, vinblastine 5 μM, inhibitor 10 μM
Description: as §1, §2, §3, §5, §6

[8] = Table 2B (printed Run 1), Caco-2, lopinavir or ritonavir 5 μM, CyA 10 μM, 120 minutes at 37° C., mean ± SD of triplicate wells
[9] = 120 minutes at 37° C., mean ± SD of triplicate wells

T1 sequence (P08183 whole entry): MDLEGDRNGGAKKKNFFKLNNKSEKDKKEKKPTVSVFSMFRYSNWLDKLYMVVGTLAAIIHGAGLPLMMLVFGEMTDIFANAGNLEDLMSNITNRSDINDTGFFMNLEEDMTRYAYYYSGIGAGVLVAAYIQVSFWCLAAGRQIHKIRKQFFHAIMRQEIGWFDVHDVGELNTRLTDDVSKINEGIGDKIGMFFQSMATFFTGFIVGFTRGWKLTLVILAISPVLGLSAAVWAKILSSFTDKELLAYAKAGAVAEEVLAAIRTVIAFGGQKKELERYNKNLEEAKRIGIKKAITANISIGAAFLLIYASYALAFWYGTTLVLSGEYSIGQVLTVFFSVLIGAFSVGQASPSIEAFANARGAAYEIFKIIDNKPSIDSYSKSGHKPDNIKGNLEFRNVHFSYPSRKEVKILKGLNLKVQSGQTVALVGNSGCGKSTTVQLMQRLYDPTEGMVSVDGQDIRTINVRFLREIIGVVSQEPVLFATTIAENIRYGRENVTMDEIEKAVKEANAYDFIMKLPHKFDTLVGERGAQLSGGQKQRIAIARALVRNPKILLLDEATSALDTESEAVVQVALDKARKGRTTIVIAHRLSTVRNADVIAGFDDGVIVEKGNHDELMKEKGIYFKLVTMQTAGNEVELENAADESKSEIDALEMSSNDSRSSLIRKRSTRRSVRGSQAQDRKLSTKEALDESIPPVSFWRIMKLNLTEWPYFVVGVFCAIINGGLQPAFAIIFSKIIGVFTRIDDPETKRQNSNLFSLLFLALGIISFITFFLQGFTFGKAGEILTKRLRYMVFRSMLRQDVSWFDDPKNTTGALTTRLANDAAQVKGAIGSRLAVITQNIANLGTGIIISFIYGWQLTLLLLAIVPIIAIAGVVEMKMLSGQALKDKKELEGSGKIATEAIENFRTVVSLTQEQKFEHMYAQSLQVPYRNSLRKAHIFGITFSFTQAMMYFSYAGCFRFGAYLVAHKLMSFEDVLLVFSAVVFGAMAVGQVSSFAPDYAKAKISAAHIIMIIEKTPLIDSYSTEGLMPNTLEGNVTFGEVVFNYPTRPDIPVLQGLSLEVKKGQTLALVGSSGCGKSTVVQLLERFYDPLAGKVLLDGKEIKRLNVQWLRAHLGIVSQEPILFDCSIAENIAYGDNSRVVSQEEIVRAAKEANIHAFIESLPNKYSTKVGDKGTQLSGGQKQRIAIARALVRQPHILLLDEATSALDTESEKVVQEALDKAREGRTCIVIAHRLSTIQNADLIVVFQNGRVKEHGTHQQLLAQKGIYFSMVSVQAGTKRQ

## Cc1cccc(C)c1OCC(=O)N[C@@H](Cc1ccccc1)[C@@H](O)C[C@H](Cc1ccccc1)NC(=O)[C@H](C(C)C)N1CCCNC1=O (relative stereo) [Lopinavir, [1S-[1R*,(R*),3R*,4R*]]-N-[4-[[(2,6-dimethylphenoxy)acetyl]amino]-3-hydroxy-5-phenyl-1-(phenylmethyl)pentyl]tetrahydro-alpha-(1-methylethyl)-2-oxo-(2H)-pyrimidine acetamide]
[1]
  Papp A→B at 120 min, 5 μM: 10.7 ± 0.58 ×10⁻⁶ cm/s
  Papp B→A at 120 min, 5 μM: 9.55 ± 2.1 ×10⁻⁶ cm/s
[2]; Caco-2 bi-directional permeability with or without cyclosporin A
  substrate for P-glycoprotein (conclusion from Tables 2A and 2B): not a substrate for P-glycoprotein
[2]; [8]
  P(app) AP-BL: 18.72 ± 1.04 1 × 10(−6) cm/sec
  P(app) BL-AP: 17.42 ± 4.37 1 × 10(−6) cm/sec
[3]
  decrease in the IC50 of paclitaxel: 9 fold
[4]; lopinavir 5 μM with paclitaxel
  reduction of the IC50 of paclitaxel: 11 fold
[4]; lopinavir 10 μM with paclitaxel
  reduction of the IC50 of paclitaxel: 21 fold
[5]; after 60 minutes
  compound remained in the HCT15 cells: approximately 80%

## CC(C)c1nc(CN(C)C(=O)N[C@H](C(=O)N[C@@H](Cc2ccccc2)C[C@H](O)[C@H](Cc2ccccc2)NC(=O)OCc2cncs2)C(C)C)cs1 (relative stereo) [Ritonavir, [5S-(5R*,8R*,10R*,11R*)]-10-hydroxy-2-methyl-5-(1-methylethyl)-1-[2-(1-methylethyl)-4-thiazolyl]-3,6-dioxo-8,11-bis(phenylmethyl)-2,4,7,12-tetraazatridecan-13-oic acid, 5-thiazolylmethyl ester]
[5]; in 15 minutes
  elimination (efflux) by the HCT15 cells: rapidly eliminated

## CC[C@]1(O)C[C@@H]2CN(CCc3c([nH]c4ccccc34)[C@@](C(=O)OC)(c3cc4c(cc3OC)N(C)[C@H]3[C@@](O)(C(=O)OC)[C@H](OC(C)=O)[C@]5(CC)C=CCN6CC[C@]43[C@@H]65)C2)C1 [Vinblastine, vinblastine]
[6]
  Papp A→B at 120 min, 5 μM: 0.91 ± 0.07 ×10⁻⁶ cm/s
  Papp B→A at 120 min, 5 μM: 17.7 ± 0.39 ×10⁻⁶ cm/s
  efflux ratio at 120 min, 5 μM: 19.5
[7]
  Ratio (BL-AP/AP-BL): 30.02
[7]; [9]
  P(app) AP-BL: 0.49 ± 0.00 1 × 10(−6) cm/sec
  P(app) BL-AP: 14.71 ± 3.33 1 × 10(−6) cm/sec
